Experimental data as given in patent publication US20140286903A1, “Substituted Purine Nucleosides, Phosphoramidate and Phosphordiamidate Derivatives for Treatment if Viral Infections” (INHIBITEX, INC., priority 2011, published 2014).

Tests used:
[1] = Cytotoxicity assay (CellTiter-Glo); format: cell-based; conditions: human, 72 h incubation, concentration resulting in 50% luminescent signal
Method: (§1) Further to the above Examples, representative compounds, prepared according to the examples were tested for potency in an HCV replicon assay (Genotype 1b) for activity against the virus (EC50) and toxicity to the cells (CC50).
(§2) Huh7 Replicon Cell Lines and Cell Culture Conditions: A luciferase-reporter genotype 1b subgenomic replicon cell line, and a genotype 1a full-length replicon cell line were obtained from Apath, LLC, Brooklyn, N.Y.: All cell lines were passaged twice a week by splitting 4 or 6 fold. Cells were maintained in DMEM-high glucose medium (HyClone, Logan, Utah) supplemented with 9% FBS (HyClone), 2 mM glutamine (Invitrogen, Carlsbad, Calif.), 100 U/mL PenStrep (Invitrogen). Media also contained 0.25 mg/mL of the antibiotic G-418 to maintain stable expression of the replicon (Invitrogen). Incubation was performed at 37° C. in 5% CO2 atmosphere. Replicon cell lines were used until they accumulated 15-to-18 passages, after which cells were restarted from the frozen stock. Seeding cell counts were routinely determined using an automatic Cedex HiRes cell counter (Flownomics Analytical Instruments, Madison, Wis.) or manually using INCYTO C-Chip™ Disposable Hemacytometers (Fisher Scientific, Pittsburg, Pa.).
Cytotoxicity Assay. Cells were seeded into 96-well plates at a density of 2×10^4 cells per well. 24 h after cell plating, 11 serial 2× compound dilutions, starting with 100 µM, were applied to the testing plates (3 repeats per compound dilution). Each testing plate was run with a “no-compound” control. Incubation with compounds was continued at 37° C. in a CO2 incubator for 72 h. To determine cell viability, the CellTiter-Glo® assay (Promega, Madison, Wis.) was performed according to the manufacturer's protocol. The compound concentration resulting in 50% luminescent signal was reported as the CC50 concentration.

[2] = test system: HCV replicon (Genotype 1b); assay: Luciferase genotype 1b replicon potency assay; format: cell-based, hepatitis C virus; conditions: Hepatitis C virus, Huh-7, Huh7 luciferase-reporter genotype 1b subgenomic replicon cells; Renilla luciferase reporter activity; 50% decrease vs untreated cells
Method: as §1, §2
Luciferase Genotype 1b Replicon Potency Assay. Replicon cells were seeded into white 96-well plates (Nunc/VWR) at a density of 2×10^4 cells/well in medium without G-418. A Stacker Multidrop Liquid Dispenser (MTX Lab Systems, Vienna, Va.) was employed to ensure uniform and fast cell seeding into multiple plates. 18-24 h after cell plating, inhibitors were added and cells were incubated for additional 24, 48, or 72 h (as indicated). Compounds were tested in triplicates and quadruplicates at 3× or 4× serial dilutions over a range of 0.0001-to-10 μM concentrations. HCV replication was monitored by Renilla luciferase reporter activity assay using Renilla luciferase reporter (Promega, Madison, Wis.) and a Veritas Luminometer (Turner Biosystems, Sunnyvale, Calif.). 50% and 90% inhibitory concentration (IC50 and IC90) values were calculated as the concentration of compound that results correspondingly in 50% and 90% decreases in the reporter expression as compared to untreated cells. The values were determined by non-linear regression (four-parameter sigmoidal curve fitting) analysis.

[3] = Huh7 HCV replicon cells (genotype 1b)

SMILES | CC50 at 72 h [1] | IC50 [2] | CC50 at 72 h [1, 3]
CCOc1nc(N)nc2c1ncn2[C@@H]1O[C@H](COP(=O)(N[C@@H](C)C(=O)OC2CCCCC2)Oc2cccc3ccccc23)[C@@H](F)[C@@]1(C)O (stereo partly drawn) [Example 22, (2S)-Cyclohexyl 2-((((2R,3R,4S,5R)-5-(2-amino-6-ethoxy-9H-purin-9-yl)-3-fluoro-4-hydroxy-4-methyltetrahydrofuran-2-yl)methoxy)(naphthalen-1-yloxy)phosphorylamino)propanoate] | 16 µM | 0.73 µM | 
C[C@]1(O)[C@H](F)[C@@H](CO)O[C@@H]1n1cnc2c(Cl)nc(N)nc21 [Example 5, (2S,3R,4R,5R)-2-(2-amino-6-chloro-9H-purin-9-yl)-4-fluoro-5-(hydroxymethyl)-3-methyltetrahydrofuran-3-ol] |  | > 100 µM | > 100 µM
COc1nc(N)nc2c1ncn2[C@@H]1O[C@H](COP(=O)(N[C@@H](C)C(=O)OC2CCCCC2)Oc2cccc3ccccc23)[C@@H](F)[C@@]1(C)O (stereo partly drawn) [Example 18, (2S)-Cyclohexyl 2-((((2R,3R,4S,5R)-5-(2-amino-6-methoxy-9H-purin-9-yl)-3-fluoro-4-hydroxy-4-methyltetrahydrofuran-2-yl)methoxy)(naphthalen-1-yloxy)phosphorylamino)propanoate] | 30 µM | 1.3 µM | 
COc1nc(N)nc2c1ncn2[C@@H]1O[C@H](COP(=O)(N[C@@H](C)C(=O)OCCC(C)(C)C)Oc2cccc3ccccc23)[C@@H](F)[C@@]1(C)O (stereo partly drawn) [Example 15, (2S)-3,3-Dimethylbutyl 2-((((2R,3R,4S,5R)-5-(2-amino-6-methoxy-9H-purin-9-yl)-3-fluoro-4-hydroxy-4-methyltetrahydrofuran-2-yl)methoxy)(naphthalen-1-yloxy)phosphorylamino)propanoate] | 21 µM | 0.5 µM | 
C[C@H](NP(=O)(OC[C@H]1O[C@@H](n2cnc3c(N4CCC4)nc(N)nc32)[C@](C)(O)[C@@H]1F)Oc1cccc2ccccc12)C(=O)OCC(C)(C)C (stereo partly drawn) [Example 23, (2S)-Neopentyl 2-((((2R,3R,4S,5R)-5-(2-amino-6-(azetidin-1-yl)-9H-purin-9-yl)-3-fluoro-4-hydroxy-4-methyltetrahydrofuran-2-yl)methoxy)(naphthalen-1-yloxy)phosphorylamino)propanoate] | 49 µM | 0.9 µM | 
COc1nc(N)nc2c1ncn2[C@@H]1O[C@H](COP(=O)(N[C@@H](C)C(=O)OC2CCCC2)Oc2cccc3ccccc23)[C@@H](F)[C@@]1(C)O (stereo partly drawn) [Example 17, (2S)-Cyclopentyl 2-((((2R,3R,4S,5R)-5-(2-amino-6-methoxy-9H-purin-9-yl)-3-fluoro-4-hydroxy-4-methyltetrahydrofuran-2-yl)methoxy)(naphthalen-1-yloxy)phosphorylamino)propanoate] | 40 µM | 0.45 µM | 
C[C@@]1(O)[C@H](F)[C@@H](CO)O[C@H]1n1ccc(=O)[nH]c1=O [Example 10, 1-((2R,3S,4R,5R)-4-Fluoro-3-hydroxy-5-(hydroxymethyl)-3-methyltetrahydrofuran-2-yl)pyrimidine-2,4(1H,3H)-dione] |  | 23 µM | > 100 µM
COc1nc(N)nc2c1ncn2[C@@H]1O[C@H](COP(=O)(N[C@@H](C)C(=O)OCC(C)(C)C)N[C@@H](C)C(=O)OCC(C)(C)C)[C@@H](F)[C@@]1(C)O [Example 27, (2S,2′S)-Neopentyl 2,2′-((((2R,3R,4S,5R)-5-(2-amino-6-methoxy-9H-purin-9-yl)-3-fluoro-4-hydroxy-4-methyltetrahydrofuran-2-yl)methoxy)phosphoryl)bis(azanediyl)dipropanoate] |  | 2.1 µM | > 100 µM
CCOc1nc(N)nc2c1ncn2[C@@H]1O[C@H](COP(=O)(N[C@@H](C)C(=O)OC2CCCC2)Oc2cccc3ccccc23)[C@@H](F)[C@@]1(C)O (stereo partly drawn) [Example 21, (2S)-Cyclopentyl 2-((((2R,3R,4S,5R)-5-(2-amino-6-ethoxy-9H-purin-9-yl)-3-fluoro-4-hydroxy-4-methyltetrahydrofuran-2-yl)methoxy)(naphthalen-1-yloxy)phosphorylamino)propanoate] | 28 µM | 0.4 µM | 
COc1nc(N)nc2c1ncn2[C@@H]1O[C@H](COP(=O)(N[C@@H](C)C(=O)OCC(C)(C)C)Oc2cccc3ccccc23)[C@@H](F)[C@@]1(C)O (stereo partly drawn) [Example 16, (2S)-Neopentyl 2-((((2R,3R,4S,5R)-5-(2-amino-6-methoxy-9H-purin-9-yl)-3-fluoro-4-hydroxy-4-methyltetrahydrofuran-2-yl)methoxy)(naphthalen-1-yloxy)phosphorylamino)propanoate] | 29 µM | 0.37 µM | 
COc1nc(N)nc2c1ncn2[C@@H]1O[C@H](COP(=O)(N[C@H](C(=O)OCc2ccccc2)C(C)C)Oc2cccc3ccccc23)[C@H](F)[C@@]1(C)O (stereo partly drawn) [Example 30, (2S)-Benzyl 2-((((2R,3S,4S,5R)-5-(2-amino-6-methoxy-9H-purin-9-yl)-3-fluoro-4-hydroxy-4-methyltetrahydrofuran-2-yl)methoxy)(naphthalen-1-yloxy)phosphorylamino)-3-methylbutanoate] | 19 µM | 11 µM | 
COc1nc(N)nc2c1ncn2[C@H]1O[C@H](CO)[C@@H](F)[C@]1(C)O [Example 4, (2S,3R,4R,5R)-2-(2-Amino-6-methoxy-9H-purin-9-yl)-4-fluoro-5-(hydroxymethyl)-3-methyltetrahydrofuran-3-ol] |  | > 100 µM | > 100 µM
CCOc1nc(N)nc2c1ncn2[C@@H]1O[C@H](COP(=O)(N[C@@H](C)C(=O)OCC(C)(C)C)Oc2cccc3ccccc23)[C@@H](F)[C@@]1(C)O (stereo partly drawn) [Example 20, (2S)-Neopentyl 2-((((2R,3R,4S,5R)-5-(2-amino-6-ethoxy-9H-purin-9-yl)-3-fluoro-4-hydroxy-4-methyltetrahydrofuran-2-yl)methoxy)(naphthalen-1-yloxy)phosphorylamino)propanoate] | 23 µM | 0.62 µM | 
CCCCOC(=O)[C@H](C)NP(=O)(OC[C@H]1O[C@@H](n2cnc3c(OC)nc(N)nc32)[C@](C)(O)[C@@H]1F)Oc1cccc2ccccc12 (stereo partly drawn) [Example 14, (2S)-butyl 2-((((2R,3R,4S,5R)-5-(2-amino-6-methoxy-9H-purin-9-yl)-3-fluoro-4-hydroxy-4-methyltetrahydrofuran-2-yl)methoxy)(naphthalen-1-yloxy)phosphorylamino)propanoate] | 40 µM | 0.33 µM | 
C[C@H](NP(=O)(OC[C@H]1O[C@@H](n2cnc3c(N)ncnc32)[C@](C)(O)[C@@H]1F)Oc1cccc2ccccc12)C(=O)OCC(C)(C)C (stereo partly drawn) [Example 31, (2S)-Neopentyl 2-((((2R,3R,4S,5R)-5-(6-amino-9H-purin-9-yl)-3-fluoro-4-hydroxy-4-methyltetrahydrofuran-2-yl)methoxy)(naphthalen-1-yloxy)phosphorylamino)propanoate] | 31 µM | 11 µM | 
CCOc1nc(N)nc2c1ncn2[C@@H]1O[C@H](CO)[C@@H](F)[C@@]1(C)O [Example 6, (2R,3S,4R,5R)-2-(2-amino-6-ethoxy-9H-purin-9-yl)-4-fluoro-5-(hydroxymethyl)-3-methyltetrahydrofuran-3-ol] |  | > 100 µM | > 100 µM
